# According to patent publication US4785080A, “Labeled analytes” (Baker Instruments Corporation, priority 1985, dated 1988):
# “And” between values parts separate entries of the source, which are not always exact repeats. Equal entries are not always repeated.
# Tests used:
# thyroxine antibody [1] = assay: Reference displacement curve, thyroxine vs thyroxine-S-peptide, colorimetric, CentrifiChem 500 (Example XVIII); assay type: binding; conditions: for Rate: antibody
# Description: This Example illustrates the generation of a reference displacement curve for determination of unknown concentrations of the analyte thyroxine where a colorimetric substrate is utilized along with a centrifugal fast analyzer.
# (§1) The following reagents were utilized:
# a. Thyroxine S-peptide labeled analyte: Material prepared in the manner described in Examples I-IV was diluted by a factor of 1:400 with 0.1M sodium acetate buffer of pH 5.0;
# b. Antibody: Antiserum was diluted by a factor of 1:300 with 0.1M sodium acetate buffer of pH 5.0;
# c. Substrate: Uridine 3'-α-naphthyl phosphate;
# d. S-protein: Sigma purified commercial material was brought to 2.5×10^-6 M in 0.1M sodium acetate buffer;
# e. Dye: The 1,5-naphthalene disulfonic acid stabilized salt of diazo-psulfanilic acid (25 mg.) was dissolved in 1 ml of 0.1N HCl;
# f. Standards: Thyroxine standards at concentrations of 0, 40, 80, 120, and 200 ng/ml were made up in a human serum containing solution.
# The following settings were utilized on the CentrifiChem° 500 centrifugal fast analyzer: rotor temp, 30°; filter, 520 nm; To, 10 sec; t, 2 min; ABS 1.0 u; Blank, hold; test mode, Term; Print out, ABS; conc. factor, 0; test code 0.
# The standard (20 ul), antibody and polypeptide labeled analyte were pipetted into the sample wells of channels 3 to 14 of the transfer disc. A mixture of 5 ul of the dye, 300 ul of substrate, and 20 ul of S-protein, was pipetted into the corresponding reagent wells along with 10 ul of acetate buffer. The loaded transfer disc was placed on the rotor, and the instrument was spun. […]
# thyroxine antibody [2] = assay: Effect of pH on immunoreactivity in the assay of thyroxine; assay type: binding; conditions: pH from 5 to about 7
# Text: The effect of pH on the assay should likewise be considered. […] While the naphthyl phosphate substrate described herein may be suitably used at a pH of 5, the preferred umbelliferone-type substrate needs a pH in the range of about 6 to about 8 for useful operation in the […] mode. Sensitivities in pH can perhaps be overcome by changing the charge characteristics of the labeled analyte, as by incorporating more basic groups on the analyte molecule. Also, the use of a more avid antisera for thyroxine should be helpful. It may also be helpful to modify the linking chemistry (e.g.--the site, type of linking groups).
# thyroxine antibody [3] = assay: Reference displacement curve, thyroxine, interconverted pipetting of labeled analyte and S-protein (Example XIX); assay type: binding; conditions: for 10^3 Rate: antibody
# Text: This Example illustrates the interconversion of the thyroxine labeled analyte and S-protein where the S-protein is pipetted into the sample well and the labeled analyte is pipetted into the reagent well, in contrast to the preceding example where the reverse arrangement was used. Additionally, this Example illustrates the formulation of two reagent solutions for direct pipetting into the sample and reagent wells of the transfer disc using an automatic pipetter (Centrifichem® model P-500 pipetter). Thirdly, this Example illustrates the enhancement of dynamic range in relation to that obtained in Example XVIII by increasing the concentrations of the antibody and S-protein.
# as §1
# a. Thyroxine-S-peptide labeled analyte: Material prepared in the manner described in Examples I-IV was diluted by a factor of 1:50 with 0.1M sodium acetate buffer of pH 5.0;
# b. Antibody: Antiserum was diluted by a factor of 1:30 with 0.1M sodium acetate buffer of pH 5.0;
# c. Substrate: Uridine 3'-(α-naphthyl phosphate);
# d. S-protein: Sigma purified commercial material was brought to […] in 0.1M sodium acetate buffer;
# e. Dye: As in Example XVIII.
# f. Standards: As in Example XVIII.
# A mixture consisting of 500 ul of the substrate, 100 ul of the dye, and 250 ul of the conjugate was prepared. (Reagent A)
# A second solution (Reagent B) was prepared by combining 300 ul of the antibody, reagent, 300 ul of the S-protein and 150 ul of 0.1N. sodium acetate buffer.
# The following protocol was utilized for the assay: The standard (20 ul) and 65 ul of de-ionized H2 O were delivered to the sample well of the transfer disc by the sample probe of the P-500 pipetter. The reagent B (50 ul) was delivered to the sample well with the second reagent probe of the pipetter. Reagent A (250 ul) was delivered to the reagent well of the transfer disc with the first reagent probe of the pipetter. All three pipetting operations were done simultaneously in one cycle. The transfer disc was then placed on the CentrifiChem® 400 for analysis. The following settings were utilized for the CentrifiChem®: temperature, 30°; filter, 520 nm; T0, 10 seconds; T, 2 minutes; Abs, 3.0 u; Blank, hold; test mode, Term; print out, Abs; concentration factor, 0; test code, 0.
# thyroxine antibody [4] = assay: Reference displacement curve, thyroxine vs thyroxine-S-peptide, fluorogenic substrate (Example XVII); assay type: binding; conditions: for Rate: antibody
# Description: This Example illustrates the generation of a reference displacement curve using thyroxine-S peptide as the labeled analyte and 5'-0-acetyl uridine-3'-(4 methylumbelliferone-7-yl phosphate) as a fluorogenic substrate. The following reagents were prepared:
# a. Thyroxine-S-Peptide labeled analyte: Material prepared as described in Examples I-IV, was diluted by a factor of 1:2000 in 0.1M sodium acetate buffer of pH 5.0.
# b. Antibody: Antiserum was diluted by a factor of 1:2000 using 0.1M sodium acetate buffer of pH 5.0;
# c. S-Protein: Purified material was brought to 2×10^-5 M using 0.1M sodium acetate buffer of pH 5.0;
# d. Substrate: Seventeen milligrams of 5'-0-acetyl-2'-0-(tetrahydropyran-2-yl) uridine 3'-(4 methylumbelliferone-7-yl ammonium phosphate was stirred in 0.01HCl for 45 minutes and then extracted with ether. Fifty ml of 0.01M sodium acetate buffer, of pH 5, was then added to give the substrate solution;
# e. Thyroxine antibody standards: Thyroxine solutions were freshly prepared to provide thyroxine concentrations of 0 ng/ml, 30 ng/ml, 60 ng/ml, 120 ng/ml, and 240 ng/ml in an aqueous medium containing human serum.
# Seventy-five microliters of the standard thyroxine solution was pretreated with 20 ul of 0.5N sodium hydroxide […] at room temperature. One hundred microliters of the antibody and 300 ul of thyroxine-S peptide labeled analyte were then added, and the mixture was incubated for 30 minutes at room temperature. A mixture consisting of 1.8 ml of substrate and 100 ul S-protein was then added. After incubating for 5 minutes, the rate of increase of fluorescence was monitored over a 10 minute period. An Aminco Filter Fluorometer (Model J4-7440) equipped with an automatic 20 sample changer (Model 047-67059) was utilized with excitation at 325 nm and emission at 440 nm. The data points were taken for each sample at times 0, 5, and 10 minutes by an automatic data acquisition system. Table 7 summarizes the results:
# In order to obtain a displacement curve, the data for duplicate points are averaged; and the % bound fraction (% B/Bo) is calculated from the equation: [formula] where Rate Bn is the rate corresponding to a non-zero standard and Rate Bo is that corresponding to the zero standard solution.
# RNase 1-118 = conditions: combined with RNase 1-118; cited from earlier work
compound,measurement,setting,value
N[C@@H](Cc1cc(I)c(Oc2cc(I)c(O)c(I)c2)c(I)c1)C(=O)O [thyroxine],rate response between the 0 standard and 200 ng/ml standard,thyroxine antibody [1]; 0 to 200 ng/ml,3.5 m.a.u./min.
same,Rate,thyroxine antibody [1]; standard 40 ng/ml,0.0208 a.u./min and 0.0222 a.u./min
same,Rate,thyroxine antibody [1]; standard 80 ng/ml,0.0217 a.u./min and 0.0218 a.u./min
same,Rate,thyroxine antibody [1]; standard 120 ng/ml,0.0224 a.u./min
same,Rate,thyroxine antibody [1]; standard 200 ng/ml,0.0230 a.u./min
same,immunoreactivity as the pH is increased,thyroxine antibody [2],immunoreactivity is decreased
same,spread in rate covering the range of standard concentrations,thyroxine antibody [3]; 0-200 ng/ml,12 milliabsorbance units/min.
same,spread in rate relative to Example XVIII,thyroxine antibody [3]; 0-200 ng/ml,about 4 times
same,10^3 Rate,thyroxine antibody [3]; standard 40 ng/ml,57.8 a.u./min. and 58.3 a.u./min.
same,10^3 Rate,thyroxine antibody [3]; standard 80 ng/ml,60.4 a.u./min. and 59.5 a.u./min.
same,10^3 Rate,thyroxine antibody [3]; standard 120 ng/ml,62.0 a.u./min. and 64.8 a.u./min.
same,10^3 Rate,thyroxine antibody [3]; standard 200 ng/ml,65.3 a.u./min.
same,Rate,thyroxine antibody [4]; thyroxine standard 30 ng/ml,13.00 mv/min and 13.57 mv/min
same,Rate,thyroxine antibody [4]; thyroxine standard 60 ng/ml,13.30 mv/min and 13.40 mv/min
same,Rate,thyroxine antibody [4]; thyroxine standard 120 ng/ml,13.68 mv/min
same,Rate,thyroxine antibody [4]; thyroxine standard 240 ng/ml,14.15 mv/min and 14.17 mv/min
same,% B/B0 (% bound fraction),thyroxine antibody [4]; standard 30 ng/ml,67%
same,Rate (average of duplicates),thyroxine antibody [4]; standard 30 ng/ml,13.28 mv/min
same,% B/B0 (% bound fraction),thyroxine antibody [4]; standard 60 ng/ml,64%
same,Rate (average of duplicates),thyroxine antibody [4]; standard 60 ng/ml,13.35 mv/min
same,% B/B0 (% bound fraction),thyroxine antibody [4]; standard 120 ng/ml,51%
same,Rate (average of duplicates),thyroxine antibody [4]; standard 120 ng/ml,13.68 mv/min
same,% B/B0 (% bound fraction),thyroxine antibody [4]; standard 240 ng/ml,32%
same,Rate (average of duplicates),thyroxine antibody [4]; standard 240 ng/ml,14.16 mv/min
"tetradecapeptide 111 to 124: synthesized tetradecapeptide corresponding to residues 111 to 124 of the original RNase (EGNPYVPVHFDASV; UniProt P61823 137-150, looked up, fragment)",recovery of catalytic activity of RNase,RNase 1-118,essentially the full catalytic activity of RNase was recovered
